Data taken from patent US20250352609A1, “Methods For Treating Alzheimer's Disease or Dementia Using A Calcilytic And A Calcimimetic” (The United States Government As Represented By The …, priority 2024, published 2025).

Experiments:
[1] = tested on: Tau phosphorylation; test: Aβ1-42-stimulated PTH secretion in vitro with Tau phosphorylation inhibitor; format: cell-based; settings: inhibition of Tau phosphorylation
Text: In support of this finding, inhibition of Tau phosphorylation by a staurosporine analogue (K252a) blocked the ability of Aβ1-42 to stimulate PTH secretion in vitro, and the increased tonic PTH hypersecretion seen in mice with PTC-targeted Vdr gene KO (^PTCVdr^Dflox/Dflox), mimicking vitamin D deficiency, was reversed by a concurrent ablation of App (^PTCVdr^Dflox/Dflox; App^Dflox/Dflox) or the TAU-encoding Mapt (^PTCVdr^Dflox/Dflox; Mapt−/−) gene.

[2] = tested on: murine PTGs; test: Ex vivo tonic PTH secretion from cultured murine PTGs; format: cell-based
Method: Ex vivo assessments of the impact of different concentrations (0.3 to 1000 nM) Aβ1-42 on PTH secretion from intact PTGs cultured from the 3-month-old mice with homozygous parathyroid-specific App gene KO (square); homozygous parathyroid-specific App and Casr double gene KO (up triangle); homozygous parathyroid-specific App and Gabbr1 double gene KO (down triangle); or homozygous parathyroid-specific App, Casr, and Gabbr1 triple gene KO (diamond). Mean±s.e.m. of n mice as indicated in the plots.
(§1) This stimulatory effect was absent in murine PTGs lacking either CaSR or GABAB1R.

[3] = tested on: human PTGs; test: Tonic PTH secretion from cultured human PTGs; format: cell-based; settings: exogenous Aβ1-42 0.3 to 1000 nM, concentration-dependent, vs control
Text: as §1

[4] = tested on: iPSC-derived neurons co-expressing CASR and GABAB1R; test: cAMP production in iPSC-derived neurons challenged by Aβ42; format: cell-based; settings: iPSC-derived neurons perfused with Aβ42
Text: Averaged time courses of CAMP in normal iPSC-derived neurons natively expressing CaSR and GABAB1R and challenged by Ab1-42. Cells were continuously perfused with buffer without or with Aβ42 (horizontal bar). Data represent the mean value s.e.m. of n=20 cells and N=3 experiments.
Given that HPT can cause chronic inflammation (Cheng, S. P., et al. Mediators Inflamm 2014, 709024 (2014); çrakolu, M. F. et al. ENT Updates 11, 115-119 (2021); and Almqvist, E. G., et al. Scandinavian journal of clinical and laboratory investigation 71, 139-144 (2011)) and that CaSR expression increases in inflammatory responses in pathological conditions (Jager, E. et al. Nat Commun 11, 4243 (2020); and Iamartino, L. & Brandi, M. L. Front Physiol 13, 1059369 (2022)), including in AD, through interleukin (IL)-1β (IL1β) and IL-6-induced NFkb cis-acting response of CASR gene (Canaff, L. & Hendy, G. N. J Biol Chem 280, 14177-14188 (2005); and Hendy, G. N. & Canaff, Semin Cell Dev Biol 49, 37-43 (2016)), HPT-induced inflammation could be a leading cause for CaSR upregulation as well as for Aβ buildup in AD (Kinney, J. W. et al. Alzheimers Dement (N Y) 4, 575-590 (2018); Ilievski, V. et al. PloS one 13, e0204941 (2018); and Yamamoto, M. et al. Am J Pathol 170, 680-692 (2007)).

[5] = tested on: 18 MOA male C57/B6 mice; test: Y-maze test, aging-induced cognitive declines, Etelcalcetide; format: in vivo; settings: 18 MOA vs 5 MOA male C57/B6 mice, 8 weeks daily (5 days/week) injections, 500 μg/kg
Method: Spont Alt indices of Y-maze test in 5 and 18 MOA male C57/B6 mice after 8 weeks of daily (5 days/week) injections of vehicle, 500 μg/kg Etelcalcetide (Etel) and/or 12 μmole/kg NPS-2143 (2143). Mean±SE, p values by one-way ANOVA, n=6-12 mice/group.
(§2) Based on the outcomes of the above genetically manipulated mice, it was tested whether pharmacological manipulations of serum PTH levels with blood-brain barrier (BBB)-impermeable calcimimetics (e.g., etelcalcetide) that activate CaSR homodimers in PTCs to suppress PTH secretion can prevent the cognitive declines in the aging and APP^NL-G-F/NL-G-F mice.

[6] = tested on: serum PTH (sPTH); test: Serum PTH in aging-associated HPT mice; format: in vivo; settings: aged male C57/B6 mice; aducanumab 40 mg/kg/week by twice weekly injections for 5 weeks; Etelcalcetide 0.3 mg/kg once daily
[7] = tested on: APP^NL-G-F mice; test: Y-maze test, cognitive declines in EOAD mice, Etelcalcetide; format: in vivo; settings: APP^NL-G-F mice at 10 MOA, daily (5 days/week) injections 500 μg/kg beginning at 6 MOA
Method: Spont Alt indices of Y-maze test in 10 MOA mice carrying humanized Ab sequence without (bAb-KI) or with (APP^NLGF) 4 mutations identified from EOAD patients after daily (5 days/week) injections of vehicle, 500 μg/kg Etelcalcetide (Etel) and/or 12 μmole/kg NPS-2143 (2143) beginning at 6 MOA. Mean±SE, p values by one-way ANOVA, n=19-37 mixed male and female mice/group.
as §2

COC(=O)[C@@]1(O)C[C@H]2O[C@]1(C)n1c3ccccc3c3c4c(c5c6ccccc6n2c5c31)C(=O)NC4 [K252a]
ability of Aβ1-42 to stimulate PTH secretion [1]: blocked

Aβ1-42: b-amyloid (Ab1-42), derivative of amyloid precursor protein, added exogenously to PTG cultures
stimulation of tonic PTH secretion ([2]; exogenous Aβ1-42 0.3 to 1000 nM, concentration-dependent, vs control): up to 1.6 fold
stimulatory effect on PTH secretion in PTGs lacking either CaSR or GABAB1R ([2]; murine PTGs lacking either CaSR or GABAB1R): absent
Ca^2+-set point ([2]; murine and human PTGs, Aβ1-42 0.3 to 1000 nM): without shifting
stimulation of tonic PTH secretion [3]: ≤ 1.9 fold
cAMP production [4]: stimulating cAMP production

CC(=O)N[C@H](CSSC[C@H](N)C(=O)O)C(=O)N[C@H](C)C(=O)N[C@H](CCCNC(=N)N)C(=O)N[C@H](CCCNC(=N)N)C(=O)N[C@H](CCCNC(=N)N)C(=O)N[C@H](C)C(=O)N[C@H](CCCNC(=N)N)C(N)=O [Etelcalcetide]
cognitive declines, Y-maze Spont Alt index [5]: partially prevented
reduction of sPTH [6]: > 80%
early cognitive declines, Y-maze Spont Alt index [7]: partially prevented
